Measured values taken from ChEMBL document CHEMBL6092222 (J Med Chem, 2024).
In brackets after ≈: the same amount, converted by molar mass.

Tests used:
[1] = Lipophilicity, logP of compound by HPLC analysis; assay type: physicochemical
[2] = Dissociation constant, pKa of compound; assay type: physicochemical
[3] = Solubility of compound at pH 1 by reversed-phase UPLC analysis; assay type: physicochemical; conditions: buffer
[4] = Solubility of compound at pH 2 by reversed-phase UPLC analysis; assay type: physicochemical; conditions: buffer
[5] = Solubility of compound at pH 3 by reversed-phase UPLC analysis; assay type: physicochemical; conditions: buffer
[6] = Solubility of compound at pH 4 by reversed-phase UPLC analysis; assay type: physicochemical; conditions: buffer
[7] = Solubility of compound at pH 5 by reversed-phase UPLC analysis; assay type: physicochemical; conditions: buffer
[8] = Solubility of compound at pH 6.5 by reversed-phase UPLC analysis; assay type: physicochemical; conditions: buffer
[9] = Solubility of compound at pH 7.4 by reversed-phase UPLC analysis; assay type: physicochemical; conditions: buffer
[10] = Solubility of compound in FeSSIF at pH 5 by reversed-phase UPLC analysis; assay type: physicochemical
[11] = Solubility of compound in FaSSIF at pH 6.5 by reversed-phase UPLC analysis; assay type: physicochemical
[12] = Apparent permeability across apical to basal side in human Caco-2 cells; assay type: ADME, cell-based
[13] = Efflux ratio of apparent permeability across basal to apical side over apical to basal side in human Caco-2 cells; assay type: ADME, cell-based
[14] = Permeability of compound by PAMPA; assay type: ADME; conditions: read-out: permeability
[15] = Protein binding in human plasma assessed as free fraction; assay type: ADME, cell-free
[16] = Protein binding in rat plasma assessed as free fraction; assay type: ADME, cell-free
[17] = Protein binding in monkey plasma assessed as free fraction; assay type: ADME, cell-free, Macaca mulatta; conditions: rhesus monkey
[18] = Inhibition of STAT5 phosphorylation in IFN-gamma-treated human whole blood; assay type: tissue-based
[19] = Oral bioavailability in mouse; assay type: ADME, organism-based; conditions: in vivo
[20] = Oral bioavailability in rat; assay type: ADME, organism-based; conditions: in vivo
[21] = Oral bioavailability in monkey; assay type: ADME, organism-based, Macaca mulatta; conditions: rhesus monkey, in vivo
[22] = Oral bioavailability in mouse at 50 mg/kg administered as suspension; assay type: ADME, organism-based; conditions: in vivo
[23] = Cmax in Sprague-Dawley rat at 10 mg/kg, po measured for 24 hrs by UPLC-MS/MS analysis; assay type: ADME, organism-based; conditions: in vivo
[24] = Cmax in Pentagastrine-pretreated Sprague-Dawley rat at 10 mg/kg, po measured for 24 hrs by UPLC-MS/MS analysis; assay type: ADME, organism-based; conditions: in vivo
[25] = Cmax in Famotidine-pretreated Sprague-Dawley rat at 10 mg/kg, po measured for 24 hrs by UPLC-MS/MS analysis; assay type: ADME, organism-based; conditions: in vivo
[26] = Tmax in Sprague-Dawley rat at 10 mg/kg, po measured for 24 hrs by UPLC-MS/MS analysis; assay type: ADME, organism-based; conditions: in vivo
[27] = Tmax in Pentagastrine-pretreated Sprague-Dawley rat at 10 mg/kg, po measured for 24 hrs by UPLC-MS/MS analysis; assay type: ADME, organism-based; conditions: in vivo
[28] = Tmax in Famotidine-pretreated Sprague-Dawley rat at 10 mg/kg, po measured for 24 hrs by UPLC-MS/MS analysis; assay type: ADME, organism-based; conditions: in vivo
[29] = AUC (total) in Sprague-Dawley rat at 10 mg/kg, po measured for 24 hrs by UPLC-MS/MS analysis; assay type: ADME, organism-based; conditions: in vivo
[30] = AUC (total) in Pentagastrine-pretreated Sprague-Dawley rat at 10 mg/kg, po measured for 24 hrs by UPLC-MS/MS analysis; assay type: ADME, organism-based; conditions: in vivo
[31] = AUC (total) in Famotidine-pretreated Sprague-Dawley rat at 10 mg/kg, po measured for 24 hrs by UPLC-MS/MS analysis; assay type: ADME, organism-based; conditions: in vivo
[32] = Oral bioavailability in Sprague-Dawley rat at 10 mg/kg measured for 24 hrs by UPLC-MS/MS analysis; assay type: ADME, organism-based; conditions: in vivo
[33] = Oral bioavailability in Pentagastrine-pretreated Sprague-Dawley rat at 10 mg/kg measured for 24 hrs by UPLC-MS/MS analysis; assay type: ADME, organism-based; conditions: in vivo
[34] = Oral bioavailability in Famotidine-pretreated Sprague-Dawley rat at 10 mg/kg measured for 24 hrs by UPLC-MS/MS analysis; assay type: ADME, organism-based; conditions: in vivo
physchem [35] = conditions: aqueous buffer, pH 1
Description: Solubility of compound in aqueous buffer at pH 1 at 25 degreeC by reversed phase-HPLC analysis

physchem [36] = conditions: aqueous buffer, pH 4
Description: Solubility of compound in aqueous buffer at pH 4 at 25 degreeC by reversed phase-HPLC analysis

physchem [37] = conditions: aqueous buffer, pH 6.5
Description: Solubility of compound in aqueous buffer at pH 6.5 at 25 degreeC by reversed phase-HPLC analysis

[2H]C([2H])([2H])NC(=O)c1cnc(NC(=O)C2CC2)cc1Nc1cccc(-c2nnn(C)n2)c1OC showed a logP [1] of 2.7, a pKa [2] of 4.8 and a solubility [3] of 2020 µg/mL (≈ 4750 µM). For the same molecule, the solubility [4] was 1680 µg/mL (≈ 3950 µM), the solubility [5] was 17 µg/mL (≈ 40 µM) and the solubility [6] was 5 µg/mL (≈ 11.8 µM). It also gave a solubility [7] of less than 1 µg/mL, a solubility [8] of less than 1 µg/mL and a solubility [9] of less than 1 µg/mL. For the same molecule, the solubility [10] was 57 µg/mL (≈ 134 µM), the solubility [11] was 8 µg/mL (≈ 18.8 µM) and the Papp A→B [12] was 6.7 ×10⁻⁶ cm/s. It also gave an efflux ratio [13] of 8.2, a Papp [14] of roughly 60 ×10⁻⁶ cm/s and a fraction unbound [15] of 0.1. It also gave a fraction unbound [16] of 0.07, a fraction unbound [17] of 0.08 and an IC50 [18] of 23 nM. For the same molecule, the bioavailability [19] was 100%, the bioavailability [20] was 50% and the bioavailability [21] was 100%. The bioavailability [22] was 63%, the Cmax [23] was 4.8 µM and the Cmax [24] was 8.6 µM. For the same molecule, the Cmax [25] was 0.77 µM, the Tmax [26] was 1.1 h and the Tmax [27] was 0.9 h. It also gave a Tmax [28] of 2.5 h, an AUC at 24 h [29] of 18.4 µM·h and an AUC at 24 h [30] of 46 µM·h. The AUC at 24 h [31] was 7.8 µM·h, the bioavailability [32] was 36% and the bioavailability [33] was 91%. The bioavailability [34] was 15.4%, the solubility (physchem [35]) was 2020 µg/mL (≈ 4750 µM) and the solubility (physchem [36]) was 5 µg/mL (≈ 11.8 µM). It also gave a solubility (physchem [37]) of 1 µg/mL (≈ 2.35 µM).
